{"source": "paper PMC9301717", "about": "(ACS Omega, 2022)", "origin": "cited, not measured here", "key": {"IDE [1]": {"system": "IDE"}, "IDE [2]": {"system": "IDE", "remark": "listed apart in the source"}}}
{"smiles": "Oc1ccc(/C=C/c2cc(O)cc(O)c2)cc1", "note": "[resveratrol]", "values": [{"measurement": "effect on the enzyme's ability to degrade insulin", "setting": "IDE [1]", "value": "has no effect"}, {"measurement": "effect on IDE's activity toward Aβ42", "setting": "IDE [2]", "value": "sustains"}]}
